# Test results reported in patent US8263606B2 (Xenon Pharmaceuticals Inc., priority 2008, dated 2012).
# What was measured:
# sodium channel = experiment: Guanidine influx assay (14C-guanidine radiotracer flux, in vitro); type: cell-based, human or rat; details: guanidine influx assay using a known cell line that expresses a sodium channel; activity level class
# In short: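 Human or rat sodium channels stably expressed in endogenous or recombinant cells, plated ~100,000 cells/well for 20-24 h at 37 °C. Cells were treated with test agent in low-sodium choline HEPES saline plus aconitine and 14C-guanidine at ambient temperature, washed, and counted by scintillation; IC50 from 4-parameter logistic fit.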
# CYP3A4 = CYP3A4 (Homo sapiens, UniProt P08684); experiment: Cytochrome P450 (CYP450) Inhibition Assay, CYP3A4 (Vivid fluorescence, BOMCC substrate); details: human, P450 Baculosomes (recombinant CYP3A4), probe BOMCC (Vivid substrate)
# Sequence of CYP3A4 (P08684 whole entry): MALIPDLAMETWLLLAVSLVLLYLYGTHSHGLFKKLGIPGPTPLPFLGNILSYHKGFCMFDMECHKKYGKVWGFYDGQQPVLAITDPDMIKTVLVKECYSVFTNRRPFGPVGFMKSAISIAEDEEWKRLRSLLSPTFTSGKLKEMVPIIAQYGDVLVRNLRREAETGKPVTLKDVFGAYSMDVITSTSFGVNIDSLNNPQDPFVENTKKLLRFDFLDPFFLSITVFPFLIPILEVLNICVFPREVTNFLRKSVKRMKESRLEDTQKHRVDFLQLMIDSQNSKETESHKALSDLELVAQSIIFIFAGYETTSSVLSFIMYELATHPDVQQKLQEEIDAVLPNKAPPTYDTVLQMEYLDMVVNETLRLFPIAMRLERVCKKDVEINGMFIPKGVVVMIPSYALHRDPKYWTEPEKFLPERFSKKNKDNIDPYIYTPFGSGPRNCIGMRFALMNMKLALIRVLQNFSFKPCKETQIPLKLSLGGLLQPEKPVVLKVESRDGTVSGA
melting point [°C],IC50 (sodium channel) [nM],inhibition at 10 µM (CYP3A4) [%],Structure (SMILES)
86 to 87,1000 to 10000,> 50,"CC(C)CCN1C(=O)[C@]2(COc3cc4c(cc32)CCO4)c2ccccc21 [Example 5.2, (3R)-1-(3-methylbutyl)-5,6-dihydrospiro[benzo[1,2-b:5,4-b′]difuran-3,3′-indol]-2′(1′H)-one]"
128 to 129,1000 to 10000,> 50,"CCCCCN1C(=O)[C@]2(COc3cc4c(cc32)CCO4)c2ccccc21 [Example 5.3, (3R)-1′-pentyl-5,6-dihydrospiro[benzo[1,2-b:5,4-b′]difuran-3,3′-indol]-2′(1′H)-one]"
198 to 199,1000 to 10000,> 50,"Cn1c(=O)oc2cc3c(cc21)OCC31C(=O)N(Cc2ccc(C(F)(F)F)o2)c2ccccc21 (stereo not drawn) [Example 5.8, 3-methyl-1′-{[5-(trifluoromethyl)furan-2-yl]methyl}spiro[furo[2,3-f][1,3]benzoxazole-7,3′-indole]-2,2′(1′H,3H)-dione]"
181 to 182,1 to 100,> 50,"O=C1N(Cc2cccc(Cl)n2)c2ccccc2C12COc1cc3c(cc12)OCCO3 (stereo not drawn) [Example 5.13, 1′-[(6-chloropyridin-2-yl)methyl]-2,3-dihydrospiro[furo[2,3-g][1,4]benzodioxine-8,3′-indol]-2′(1′H)-one]"
161 to 162,1 to 100,< 50,"COc1ccc(CN2C(=O)C3(COc4cc5c(cc43)OCCO5)c3ccccc32)cn1 (stereo not drawn) [Example 5.15, 1′-[(6-methoxypyridin-3-yl)methyl]-2,3-dihydrospiro[furo[2,3-g][1,4]-benzodioxine-8,3′-indol]-2′(1′H)-one]"
216 to 218,1 to 100,< 50,"O=C1N(Cc2cnccn2)c2ccccc2[C@]12COc1cc3c(cc12)OCCO3 [Example 5.16, (8S)-1′-(pyrazin-2-ylmethyl)-2,3-dihydrospiro[furo[2,3-g][1,4]benzodioxine-8,3′-indol]-2′(1′H)-one]"
87 to 89,1000 to 10000,< 50,"CN1C(=O)C2(C(=O)N(Cc3ccccn3)c3ccccc32)c2cc3c(cc21)OCCO3 (stereo not drawn) [Example 5.19, 6-methyl-1′-(pyridin-2-ylmethyl)-2,3-dihydrospiro[1,4-dioxino[2,3-f]indole-8,3′-indole]-2′,7(1H,6H)-dione]"

# Continued, compound first:
Structure (SMILES),melting point [°C],IC50 (sodium channel) [nM],inhibition at 10 µM (CYP3A4) [%]
"O=C1N(Cc2ccccn2)c2cccc(-c3cnc4ccccc4c3)c2C12COc1cc3c(cc12)OCCO3 (stereo not drawn) [Example 4.102, 1-(pyridin-2-ylmethyl)-4′-quinolin-3-yl-2,3-dihydrospiro[furo[2,3-g][1,4]benzodioxine-8,3′-indol]-2′(1′H)-one]",228 to 230,100 to 1000,> 50
"O=C1N(Cc2ncc(F)cc2F)c2ccccc2C12COc1cc3c(cc12)OCCO3 (stereo not drawn) [Example 4.104, 1-[(3,5-difluoropyridin-2-yl)methyl]-2,3-dihydrospiro[furo[2,3-g][1,4]benzodioxine-8,3′-indol]-2′(1′H)-one]",220 to 222,1 to 100,< 50
"N#Cc1ccc2c(c1)OCC21C(=O)N(Cc2ccccn2)c2ccccc21 (stereo not drawn) [Example 4.105, 2′-oxo-1′-(pyridin-2-ylmethyl)-1′,2′-dihydrospiro[1-benzofuran-3,3′-indole]-6-carbonitrile]",151 to 153,1000 to 10000,< 50
"N#Cc1cccc(CN2C(=O)[C@@]3(COc4cc5c(cc43)OCCO5)c3ccccc32)c1 [Example 4.106, 3-{[(8S)-2′-oxo-2,3-dihydrospiro[furo[2,3-g][1,4]benzodioxine-8,3′-indol]-1′(2′H)-yl]methyl}benzonitrile]",94 to 96,1 to 100,< 50
"O=C1N(Cc2ccc(F)cn2)c2ccccc2[C@]12COc1cc3c(cc12)OCCO3 [Example 4.107, (8S)-1′-[(5-fluoropyridin-2-yl)methyl]-2,3-dihydrospiro[furo[2,3-g][1,4]benzodioxine-8,3′-indol]-2′(1′H)-one]",210 to 212,1 to 100,< 50
"O=C1N(Cc2ncccc2F)c2ccccc2[C@]12COc1cc3c(cc12)OCCO3 [Example 4.108, (8S)-1′-[(3-fluoropyridin-2-yl)methyl]-2,3-dihydrospiro[furo[2,3-g][1,4]benzodioxine-8,3′-indol]-2′(1′H)-one]",125 to 126,1 to 100,< 50
"O=C1N(Cc2cc(F)ccn2)c2ccccc2C12COc1cc3c(cc12)OCCO3 (stereo not drawn) [Example 4.110, 1-[(4-fluoropyridin-2-yl)methyl]-2,3-dihydrospiro[furo[2,3-g][1,4]benzodioxine-8,3′-indol]-2′(1′H)-one]",228 to 231,1 to 100,< 50
"O=C1N(Cc2ccccc2C(F)(F)F)c2ccccc2C12COc1cc3c(cc12)OCCO3 (stereo not drawn) [Example 4.113, 1′-[2-(trifluoromethyl)benzyl]-2,3-dihydrospiro[furo[2,3-g][1,4]benzodioxine-8,3′-indol]-2′(1′H)-one]",207 to 208,1 to 100,< 50
"O=C1N(Cc2ccccc2C(F)(F)F)c2ccccc2[C@@]12COc1cc3c(cc12)OCCO3 [Example 4.114, (8R)-1′-[2-(trifluoromethyl)benzyl]-2,3-dihydrospiro[furo[2,3-g][1,4]benzodioxine-8,3′-indol]-2′(1′H)-one]",137 to 138,100 to 1000,< 50
"O=C1N(Cc2ccccc2C(F)(F)F)c2ccccc2[C@]12COc1cc3c(cc12)OCCO3 [Example 4.116, (8S)-1′-[2-(trifluoromethyl)benzyl]-2,3-dihydrospiro[furo[2,3-g][1,4]benzodioxine-8,3′-indol]-2′(1′H)-one]",137 to 138,1 to 100,< 50
"O=C1N(Cc2ccc3nsnc3c2)c2ccccc2C12COc1cc3c(cc12)OCCO3 (stereo not drawn) [Example 4.118, 1′-(2,1,3-benzothiadiazol-5-ylmethyl)-2,3-dihydrospiro[furo[2,3-g][1,4]benzodioxine-8,3′-indol]-2′(1′H)-one]",189 to 191,1 to 100,> 50
"O=C1N(Cc2nc3ccccc3s2)c2ccccc2C12COc1cc3c(cc12)OCCO3 (stereo not drawn) [Example 4.119, 1-(1,3-benzothiazol-2-ylmethyl)-2,3-dihydrospiro[furo[2,3-g][1,4]benzodioxine-8,3′-indol]-2′(1′H)-one]",164 to 166,1 to 100,> 50
"Cn1c(CN2C(=O)C3(COc4cc5c(cc43)OCCO5)c3ccccc32)nc2ccccc21 (stereo not drawn) [Example 4.120, 1′-[(1-methyl-1H-benzimidazol-2-yl)methyl]-2,3-dihydrospiro[furo[2,3-g][1,4]benzodioxine-8,3′-indol]-2′(1′H)-one]",> 240,1 to 100,> 50
"CC(C)c1nc(CN2C(=O)C3(COc4cc5c(cc43)OCCO5)c3ccccc32)cs1 (stereo not drawn) [Example 4.121, 1′-{[2-(1-methylethyl)-1,3-thiazol-4-yl]methyl}-2,3-dihydrospiro[furo[2,3-g][1,4]benzodioxine-8,3′-indol]-2′(1′H)-one]",60 to 63,1 to 100,> 50
"O=C1N(Cc2ccc3nonc3c2)c2ccccc2C12COc1cc3c(cc12)OCCO3 (stereo not drawn) [Example 4.122, 1-(2,1,3-benzoxadiazol-5-ylmethyl)-2,3-dihydrospiro[furo[2,3-g][1,4]benzodioxine-8,3′-indol]-2′(1′H)-one]",164 to 166,1 to 100,> 50
"O=C1N(Cc2ccccn2)c2ccccc2C12COc1ccc3nonc3c12 (stereo not drawn) [Example 4.124, 1′-(pyridin-2-ylmethyl)spiro[furo[3,2-e][2,1,3]benzoxadiazole-8,3′-indol]-2′(1′H)-one]",180 to 182,1 to 100,< 50
"O=C1N(Cc2cccnc2)c2ccccc2C12COc1ccc3nonc3c12 (stereo not drawn) [Example 4.125, 1-(pyridin-3-ylmethyl)spiro[furo[3,2-e][2,1,3]benzoxadiazole-8,3′-indol]-2′(1′H)-one]",230 to 232,1000 to 10000,< 50
"O=C1N(Cc2ccccn2)c2ccccc2C12COc1c(Cl)cc3c(c12)OCCO3 (stereo not drawn) [Example 4.126, 6-chloro-1′-(pyridin-2-ylmethyl)-2,3-dihydrospiro[furo[3,2-f][1,4]benzodioxine-9,3′-indol]-2′(1′H)-one]",197 to 199,1000 to 10000,> 50
"O=C1N(C[C@H]2CCCO2)c2ccccc2C12COc1cc3c(cc12)CCCC3 (stereo partly drawn) [Example 4.129, 1-[(2R)-tetrahydrofuran-2-ylmethyl]-5′,6′,7′,8′-tetrahydrospiro[indole-3,3′-naphtho[2,3-b]furan]-2(1′H)-one]",139 to 141,1000 to 10000,< 50
"O=C1N(Cc2ccccn2)c2ccccc2C12COc1cc3nccnc3cc12 (stereo not drawn) [Example 4.130, 1′-(pyridin-2-ylmethyl)spiro[furo[2,3-g]quinoxaline-8,3′-indol]-2′(1′H)-one]",232 to 233,1000 to 10000,< 50
"COc1ncc(CN2C(=O)C3(COc4cc5c(cc43)CCO5)c3ccccc32)cn1 (stereo not drawn) [Example 5, 1-[(2-methoxypyrimidin-5-yl)methyl]-5,6-dihydrospiro[benzo[1,2-b:5,4-b′]difuran-3,3′-indol]-2′(1′H)-one]",203 to 204,100 to 1000,< 50
